Source: ChEMBL document CHEMBL3352449, “Synthesis and biological evaluation of 1α,25-dihydroxyvitamin D3 analogues with aromatic side chains attached at C-17” (Eur J Med Chem, 2014)
Active and inactive are the calls of the source. The calls are words filed in the database; no cut-off is given here.

Assays:
HL-60 = experiment: Induction of cell differentiation in human HL60 cells assessed as maturing morphological changes at 30 to 1000 nM after 48 hrs by Wright's-Giemsa staining-based forty microscopic view assay; type: functional
MCF7 = experiment: Antiproliferative activity against human MCF7 cells assessed as inhibition of proliferation after 72 hrs by MTT assay; type: functional, cell-based; conditions: MCF7, 72 h
[1] = target: T1, Vitamin D3 receptor (Bos taurus) (UniProt Q28037); experiment: Displacement of [3H]-1alpha,25-dihydroxyvitamin D3 from bovine thymus VDR measured after overnight incubation relative to 1alpha,25-dihydroxyvitamin D3
T1 sequence (whole entry): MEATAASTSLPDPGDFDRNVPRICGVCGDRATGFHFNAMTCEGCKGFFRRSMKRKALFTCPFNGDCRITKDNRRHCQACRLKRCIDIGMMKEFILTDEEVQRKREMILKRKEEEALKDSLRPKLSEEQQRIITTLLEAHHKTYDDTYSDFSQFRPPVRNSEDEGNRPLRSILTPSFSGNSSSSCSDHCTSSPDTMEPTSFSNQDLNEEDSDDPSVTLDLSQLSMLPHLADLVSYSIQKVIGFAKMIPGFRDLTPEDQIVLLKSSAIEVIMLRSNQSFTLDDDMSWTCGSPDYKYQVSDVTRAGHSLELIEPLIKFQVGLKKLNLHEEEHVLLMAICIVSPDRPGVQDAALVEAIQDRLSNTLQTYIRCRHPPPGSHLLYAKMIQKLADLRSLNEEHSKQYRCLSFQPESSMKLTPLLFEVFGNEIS

Row | Compound | Activity (HL-60) | IC50 (MCF7) [µM] | Ratio [1]
1 | C=C1/C(=C\C=C2/CCC[C@]3(C)C(c4cccc(CCCC(C)(C)O)c4)=CC[C@@H]23)C[C@@H](O)C[C@@H]1O | Active | 7.56 | 0.015
2 | C=C1/C(=C\C=C2/CCC[C@]3(C)C(c4ccccc4CCCC(C)(C)O)=CC[C@@H]23)C[C@@H](O)C[C@@H]1O | Active | 7.08 | 0.01
3 | C=C1CC[C@H](O)C/C1=C/C=C1\CCC[C@]2(C)[C@@H]([C@H](C)CCCC(C)(C)O)CC[C@@H]12 |  |  | 0.01
4 | C=C1/C(=C\C=C2/CCC[C@]3(C)[C@@H]([C@H](C)CCCC(C)(C)O)CC[C@@H]23)C[C@@H](O)C[C@@H]1O | Active |  | 
